The test system of experiment [1] is alcoholic liver damage and fatty liver. Briefly: Alcoholic fatty liver model, serum TG, TC, SOD, MDA and liver histopathology. Conditions: for MDA / SOD: day 61, liquor model; for MDA / SOD / TC / TG: n=16; for Pathological examination of liver: liquor model; for TC / TG: serum day 61, liquor model. The class given is in vivo, SD rats. As for the experimental part: 96 SPF-grade SD rats were chosen in half female and half male with an average weight of 176-220 g at the beginning of the experiment. According to their weight, they were randomly divided into vehicle control group (purified water, ig), model control group (liquor, 10 ml·Kg−1), positive control group (bicyclol, 50 mg·Kg−1, ig), folic acid calcium salt high-dose group (4 mg·Kg−1), folic acid calcium salt medium-dose group (2 mg·Kg−1), folic acid calcium salt low-dose group (1 mg·Kg−1), in half female and half male, and 16 rats in each group. Purified water was used as a negative control, and bicyclol (place of origin: Beijing Xiehe Pharmaceutical Factory, specification: 25 mg/tablet, batch number: H20040467) was used as a positive control drug. Route of administration: all were administered by oral gavage. Dosage of administration: 1 mg·Kg−1, 2 mg·Kg−1, and 4 mg·Kg−1. Frequency of administration: once a day for 60 consecutive days. Erguotou (batch number: 201603092, specification: 2L, place of origin: Beijing Shunxin Agriculture Co., Ltd.) model establishing method: gavage with diluted 56-degree Erguotou twice a day for 60 consecutive days.
Method of administration: administration started at prescribed doses on the day of modeling for 60 consecutive days and ended at the 60th day. At the same time, rats in each group were weighed every other week during administration period to monitor their body weight changes. On the 61st day, rats were dissected and serum was collected for determination of triglyceride (TG), total cholesterol (TC), malondialdehyde (MDA), superoxide dismutase (SOD) and liver histopathologic examination. The brain tissue of rats was taken out, and hippocampus tissue was separated on ice plate, prepared to homogenate with a mass fraction of 10% with purified water, then the homogenate was centrifuged to obtain supernatant. ELISA was used to detect the levels of inflammatory factors TNF-α and IL-1β in hippocampus tissue with continuous spectrum scanning microplate reader.

The subject of experiment [2] is mice after drinking. Conditions: n=10. On the procedure: Experiment 8 Tail Suspension Test and Swimming Test in Mice after Drinking
Clean-grade male Kunming mice, weighing 18-22 g, were chosen. The test was carried out at 23° C. with a humidity of 50%. The mice ate and drank freely, adapting to the environment for 5 days before the test. Then they were divided into 5 groups: model group, normal group, high-dose 5-MTHF-Ca group, medium-dose 5-MTHF-Ca group and low-dose 5-MTHF-Ca group (16 mg·Kg−1, 8mg·Kg−1, 4mg·Kg−1),
10 mice in each group. The model group was given (by gavage) Erguotou (batch number: 201603092, specification: 2L, place of origin: Beijing Shunxin Agriculture Co., Ltd.) at 18 ml·Kg−1, and calcium folate (Lianyungang Jinkang Hexin Pharmaceutical Co., Ltd.). The high-dose, medium-dose and low-dose groups were also given the solution containing Erguotou and calcium folate. The mice were tested after 24 h. The tail suspension test is carried out by fixing the tail of a mouse so that it is suspended head down in a state of desperately struggling to escape but unable to escape. After a period of time, record the immobility time of the mouse in a desperate state in this environment to observe the therapeutic effect after administration. The head of the mouse suspended upside down was 10 cm from the bottom of the box, and two mice were suspended at a time, which were separated by a partition to avoid collision. The mice were suspended for 10 min, and the accumulated immobility time of the suspended mice was counted within the latter 5 min.

Experiment [3] deals with intestinal barrier function. Conditions: chronic alcohol-fed rats, 4 mg·Kg−1. On the procedure:
96 SPF-grade SD rats, half female and half male, were chosen with an average weight of 176-220 g at the beginning of the experiment, and randomly divided into vehicle control group (glucose, 10 g·Kg−1) and model control group (liquor, 6 g·Kg−1), 5-methyltetrahydrofolate calcium group (folic acid, 4 mg·Kg−1, glucose, 10 g·Kg−1), half female and half, 16 rats in each group. […] The day on which the dose of alcohol reached 6g·Kg−1 was defined as the first day of modeling. The intestinal permeability of rats was measured at Weeks 2 and 8, then 5 rats were sacrificed at random, blood and liver tissues were taken.
An oral sugar test was carried out to evaluate intestinal permeability. After fasting for 8 h, the rats were given 2.0 ml of sugar solution,
with lactulose (107 mg/kg), mannitol (30 mg/kg), sucralose (15 mg/kg) and sucrose (570 mg/kg). The rats were individually housed in metabolic cages, and urine was collected. The sugar concentration in the urine was determined by gas chromatography. Blood samples were used to analyze endotoxin in serum with Kinetic-QLC kit.

Like-named read-outs stand apart in the source and are kept apart here.

Consider 5-methyltetrahydrofolate calcium, for which the MDA in experiment [1] (1 mg·kg−1·d−1 ig 60 d) was determined as 45.20 ± 8.17 nmol/mgprot; in experiment [1] (2 mg·kg−1·d−1 ig 60 d) it was 42.17 ± 8.65 nmol/mgprot; in experiment [1] (4 mg·kg−1·d−1 ig 60 d), 47.96 ± 10.28 nmol/mgprot. The results for the SOD in experiment [1] (1 mg·kg−1·d−1 ig 60 d), in experiment [1] (2 mg·kg−1·d−1 ig 60 d) and in experiment [1] (4 mg·kg−1·d−1 ig 60 d) were 253.20 ± 24.66 U/mgprot, 257.41 ± 31.28 U/mgprot and 248.87 ± 34.64 U/mgprot, respectively. For the same molecule, the “Pathological examination of liver” value in experiment [1] (high-dose group 4 mg·Kg−1 ig 60 d) was “no hyperplasia of interstitial connective tissue and fatty degeneration of hepatocytes”; in experiment [1] (low-dose group 1 mg·Kg−1 ig 60 d) it was “a few fatty vacuoles in hepatocytes, and no obvious hyperplasia of interstitial connective tissue”; in experiment [1] (medium-dose group 2 mg·Kg−1 ig 60 d), “no hyperplasia of interstitial connective tissue and fatty degeneration of hepatocytes”. Besides, the TC in experiment [1] (1 mg·kg−1·d−1 ig 60 d) is reported as 1.42 ± 0.36 mmol/L; in experiment [1] (2 mg·kg−1·d−1 ig 60 d), 1.50 ± 0.37 mmol/L; in experiment [1] (4 mg·kg−1·d−1 ig 60 d), 1.47 ± 0.44 mmol/L. Further, the TG in experiment [1] (1 mg·kg−1·d−1 ig 60 d) amounted to 1.08 ± 0.34 mmol/L; in experiment [1] (2 mg·kg−1·d−1 ig 60 d) it was 1.03 ± 0.50 mmol/L; in experiment [1] (4 mg·kg−1·d−1 ig 60 d) it was 1.04 ± 0.43 mmol/L. Also, the Suspension immobility time worked out at 63.53 ± 2.98 S in experiment [2] (high dose 16 mg·Kg−1 with Erguotou 18 ml·Kg−1, tested after 24 h); 72.42 ± 4.52 S in experiment [2] (low dose 4 mg·Kg−1 with Erguotou 18 ml·Kg−1, tested after 24 h); 68.32 ± 3.46 S in experiment [2] (medium dose 8 mg·Kg−1 with Erguotou 18 ml·Kg−1, tested after 24 h).

Turning to `CN1c2c([nH]c(N)nc2=O)NCC1CNc1ccc(C(=O)N[C@@H](CCC(=O)O)C(=O)O)cc1` (stereo partly drawn) [5-methyltetrahydrofolate, N-[4-[[(2-amino-1,4,5,6,7,8-hexahydro-4-oxo-5-methyl-(6S), -(6R), and (6R,S)-pteridyl)methyl)amino)toluoyl-glutamic acid], in experiment [3], the Intestinal barrier function entry is recorded as “can improve intestinal barrier function in the presence of alcohol” and the Serum endotoxin level result is given as “reduce serum endotoxin level”.

Source of the values: patent publication US20220280507A1, “USES OF 5-METHYLTETRAHYDROFOLATE AND ITS COMPOSITION” (Lianyungang Jinkang Hexin Pharmaceutical Co., Ltd., priority 2019, published 2022).
